Reference: patent publication US8008094B2, “Methods for analyzing interactions between proteins and sugar chains” (National Institute of Advanced Industrial Science and …, priority 2003, dated 2011)

What was measured:
[1] = tested on: glycoprotein probe derived from mouse brain; experiment: Lectin array (40 lectins) with crude brain-derived glycoprotein probe plus inhibiting sugar (Example 7); format: binding; settings: 10 mM inhibiting sugar added to brain-derived glycoprotein probe, FIG. 14C
Method: A glycoprotein sample extracted and purified from mouse liver and a glycoprotein sample extracted and purified from mouse brain were labeled with Cy3 to form probes, then contacted with a lectin array onto which 40 types of lectins were immobilized, and the sugar chain profile of the entire extracted mouse glycoprotein mixture was observed. Next, 10 mM of lactose was added as a competitively inhibiting sugar to the brain-derived glycoprotein probe used in the previous experiment, and the sugar chain profile was observed (FIG. 14C). […] As shown by this experiment, even when using a lectin array for the sugar chain profiling of cruder samples, comparisons and analyses between individuals can be made easier and faster by the combined use of addition experiments that use various inhibiting sugars, and comparison and analysis after narrowing down the obtained data.

[2] = tested on: binding of Cy3-ASF to lectin spots; experiment: Inhibition of lectin-sugar chain interaction on lectin array by competitively inhibiting sugar (Example 1); settings: Cy3-ASF probe, increasing inhibiting sugar concentration

For `OC[C@H]1O[C@@H](O[C@H]2[C@H](O)[C@@H](O)C(O)O[C@@H]2CO)[C@H](O)[C@@H](O)[C@H]1O` (some centres unmarked) [lactose], the “change of fluorescence signal pattern due to competitive inhibition” value [1] was “reduction was observed mainly in the signals of lactosamine-recognizing lectins” and the “fluorescence intensity of the spots in the presence of inhibiting sugar” value [2] was “decreases as the concentration of lactose (competitively inhibiting sugar) increases”.
